Test system: patients with documented CAD
Test: Plasma LDL levels in CAD patients on simvastatin therapy
Format: in vivo, human
Details: simvastatin 40 mg/day, after 4 months on therapy, 13 CAD patients, data not shown
Text: For all studies, patients were recruited and screened for coronary artery disease (CAD) according to the following criteria.
Study Population: Human subjects with active vascular disease were recruited for this aspect of the study. They were screened by a history and physical exam, measurements of lipid profile and routine blood chemistries to include for example, CBC, TSH, free T4, ALT, AST, CPK, CRP, BUN, creatinine, glucose, hemoglobin A1c (if diabetic), urinalysis for protein and glucose. First preference was given to subjects with coronary artery disease. Exclusions included the use of lipid lowering or high dose angiotensin II—altering (or blocking) drugs within three months of the study. For the purposes of the following example, because of the limitations in finding subjects with coronary artery disease that are not on lipid lowering drugs or other vascular active drugs, subjects were also accepted with high coronary disease risk ratings as determined by Framingham Risk Assessment including both hard and soft risk predictors. […]
All lipid, lipoprotein, and apolipoprotein measurements were performed in the Emory Lipid Research Laboratory, a participant in the NHLBI/CDC Lipid Standardization Program. MDA proteins were measured in the Emory Lipid Research Laboratory using a commercially available kit. […]

CCC(C)(C)C(=O)O[C@H]1C[C@@H](C)C=C2C=C[C@H](C)[C@H](CC[C@@H]3C[C@@H](O)CC(=O)O3)[C@H]21 [simvastatin]
LDL levels reduced by an average of: 32.1%

From patent US7749711B2, “Methods of assessing endothelial dysfunction using acute transient responses following fat administration” (priority 2003, dated 2010)
